Experimental data taken from patent publication US20030017567A1, “Biological sample processing methods and compositions that include surfactants” (3M Innovative Properties Company, priority 2001, published 2003).
Marks after values point to notes of the source that are not given here.

Columns and labels:
Taq polymerase = Taq polymerase (Thermus aquaticus, UniProt P19821); experiment: Quantitative PCR using TaqMan probes or Sybr green; format: biochemical; settings: with SDA 8080 0.2 mg/mL or 785 WS 0.1 mg/mL, both cases
[1] = biological target: T1, AMPLITAQ DNA polymerase (Taq polymerase) (Thermus aquaticus, UniProt P19821); experiment: PCR amplification of PERV protease fragment (327 bp) in presence of dye/surfactant; product on agarose gel or quantitated with Agilent 2100 Bioanalyzer; format: biochemical
T1 construct: purchased Applied Biosystems, Foster City, Calif
Method: Typically, a fresh stock solution of 5 milligrams (mg) of a water-insoluble near-infrared dye (NIR dye) was dissolved in 50 microliters (μL) of dimethylsulfoxide (DMSO) and brought up in water to a final volume of 1 milliliter (mL). This was then diluted out to various concentrations of dye. The diluted dye (typically 0.2 mg/mL) was then added to a surfactant solution (typically 4 wt-%) to form a complex. The complex was added to a PCR reaction.
PCR reactions were set up for a conserved sequence (327 bp) in the protease region of the genome of porcine endogenous retrovirus using a plasmid containing the PERV protease fragment, a forward primer and a reverse primer designed using a primer express program from Applied Biosystems, and AMPLITAQ DNA polymerase cocktail (commercially available from Applied Biosystems, Foster City, Calif.) and cycled in a thermocycler (9700, Applied Biosystems). The PCR reactions were typically carried out in 25-μL volumes. The NIR dye/surfactant mixture was added to the PCR cocktail to give the desired concentration of dye and surfactant in a total volume of 25 μL. A typical PCR cocktail contains 10x buffer, 2.5 μL; dNTPs, 2.0 μL (200 μM of each); forward primer, 0.5 μL (200 nM); reverse primer, 0.5 μL (200 nM); template DNA, 1.0 (1 ng/μL); Amplitaq, 0.25 μL (1.25 units); sterile water, 18.25 μL.
The products of PCR reactions were run on 1% agarose gel containing ethidium bromide and visualized using an ALPHA IMAGER (Alpha Innotech Corp., San Leandro, Calif.). […] However, a higher concentration of dye (0.1 mg/mL) for effective heating was needed. Thus, for all further PCR experiments, a dye concentration of 0.1 mg/mL or higher was used. […] Taq polymerase was tested from different manufacturers (Promega Corp., Madison, Wis.; Roche Biochemicals, Indianapolis, Ind.; Eppendorf, Scientific Inc., Westbury, N.Y.; Sigma, St. Louis, Mo.) and all the Taq polymerases were inhibited by 785 WS and SDA 8080.
In order to find out the optimum concentration of surfactant for PCR with NIR dye (785 WS and SDA 8080), the surfactant concentration in PCR reaction was varied from 0.1 wt-% to 4 wt-%. The PCR product formed was quantitated using DNA 7500 Labchip kit in Agilent 2100 Bioanalyzer (Agilent Inc, Paloalto, Calif.). The results shown in Table 3 indicate that increasing the concentration of surfactant relative to dye assists in the formation of PCR product.
A variety of dyes (NIR dyes such as IR782, IR768, SDA 2141, SDA8327, IR 830 WS, fluorescent dyes like oligreen and visible dyes like dichlorophenol, indophenol, saffranin, crystal violet, and commercially available food coloring) at typical concentrations of 0.1 or 0.2 mg/mL were allowed to interact with 4 wt-% PLURONIC F127 and each mixture was added to the PCR cocktail. The reaction was set up to amplify PERV protease fragment as described in Example 2 and the products of the reaction were analyzed by agarose gel electrophoresis.

[2] = Laser stability / photobleaching of dye solution on repeated laser exposure; format: physicochemical; settings: SDA 8080 (0.2 mg/mL), surfactant 20 wt %; 25 exposures
Method: An 813-nm diode laser source at 1.2W (1.9A) (Opto Power Corp., Tucson, Ariz. ) was used to heat a 10μL volume of near-IR dye at a concentration (0.1 mg/mL for 785 WS, 0.2 mg/iL for SDA 8080) to yield a 35° C. rise in temperature. The laser was manually turned on long enough for the temperature in a 10-μL well to increase by 35° C. (1-3 seconds) and was manually turned off when that level was attained. The temperature data was obtained using a thermocouple in the well, and the transmittance data was obtained via a power meter whose signals were digitized and graphically interpreted.
In another experiment, the 10 μL well was used to see if the dye/surfactant mixture could withstand laser cycling over a period of 30 cycles. The laser power was systematically varied from 60° C. to 94° C., 30 times.
Unlike in Example 8, some dyes and dye/surfactant complexes undergo photodegradation when exposed to laser beam. […] Specifically, in the case of 785 WS/BRIJ-97, the addition of ascorbic acid (typically 5 mg/mL) helped reduce the amount of photobleaching from 100% to 20% after 30 cycles. In some circumstances, rapid/controlled photodegradation may be desired. […] This would allow DNA tags (fluorescent or vis/IR) to be monitored at the end of the PCR reaction.
Vitamin E-TPGS has both surfactant as well as antioxidant properties.

T4 DNA ligase = biological target: T2, T4 DNA ligase (Enterobacteria phage T4, UniProt P00970); experiment: DNA ligation reaction, read out by E. coli DH10B transformant colonies and by PCR of ligated products; format: biochemical; settings: 4 wt-% PLURONIC for 785 WS; 4 wt-% TWEEN-20 for SDA 8080; similar number of colonies as control
T2 construct: purchased Life Technologies, Inc, Gaithesburg, Md
T2 sequence (P00970 1-487): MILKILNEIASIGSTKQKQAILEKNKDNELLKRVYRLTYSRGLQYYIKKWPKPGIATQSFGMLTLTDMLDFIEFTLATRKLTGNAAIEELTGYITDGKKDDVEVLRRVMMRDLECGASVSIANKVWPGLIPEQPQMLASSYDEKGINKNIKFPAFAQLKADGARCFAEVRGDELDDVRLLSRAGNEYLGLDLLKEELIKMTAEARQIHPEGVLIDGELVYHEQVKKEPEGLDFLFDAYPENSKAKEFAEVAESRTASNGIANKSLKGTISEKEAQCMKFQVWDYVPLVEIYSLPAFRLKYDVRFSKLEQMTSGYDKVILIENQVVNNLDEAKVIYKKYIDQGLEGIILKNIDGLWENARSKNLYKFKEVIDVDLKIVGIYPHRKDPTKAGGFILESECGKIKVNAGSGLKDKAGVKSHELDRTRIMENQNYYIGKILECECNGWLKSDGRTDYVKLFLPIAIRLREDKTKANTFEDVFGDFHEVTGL
Method: DNA ligation reactions were set up using T4 DNA ligase (Life Technologies, Inc, Gaithesburg, Md.) using a linearized plasmid template (pET21a, Novagen, Madison, Wis.) and a DNA insert. The reagents were used according to manufacturer's instructions. Escherichia coli DH10B competent cells were transformed with the ligated products and transformed cells were plated on Clondisc (Clontech, Palo Alto, Calif.) with appropriate antibiotic (ampicillin at 50 μg/mL). After incubation of plates at 37° C. for 16 hours to 18 hours, the resulting colonies were counted and analysed for plasmid by miniprep and restriction digest. […] In addition, all of the plasmids isolated from these plates contained the same insert as verified by restriction digest and DNA sequencing.
In addition to transformation and plating with the ligation mix, the ligated products were used as DNA template in a PCR reaction containing primers flanking the insert DNA on the plasmid template (T7 promoter and T7 terminator primers, Novagen).

T1 sequence (P19821 whole entry, the tested form may be a part): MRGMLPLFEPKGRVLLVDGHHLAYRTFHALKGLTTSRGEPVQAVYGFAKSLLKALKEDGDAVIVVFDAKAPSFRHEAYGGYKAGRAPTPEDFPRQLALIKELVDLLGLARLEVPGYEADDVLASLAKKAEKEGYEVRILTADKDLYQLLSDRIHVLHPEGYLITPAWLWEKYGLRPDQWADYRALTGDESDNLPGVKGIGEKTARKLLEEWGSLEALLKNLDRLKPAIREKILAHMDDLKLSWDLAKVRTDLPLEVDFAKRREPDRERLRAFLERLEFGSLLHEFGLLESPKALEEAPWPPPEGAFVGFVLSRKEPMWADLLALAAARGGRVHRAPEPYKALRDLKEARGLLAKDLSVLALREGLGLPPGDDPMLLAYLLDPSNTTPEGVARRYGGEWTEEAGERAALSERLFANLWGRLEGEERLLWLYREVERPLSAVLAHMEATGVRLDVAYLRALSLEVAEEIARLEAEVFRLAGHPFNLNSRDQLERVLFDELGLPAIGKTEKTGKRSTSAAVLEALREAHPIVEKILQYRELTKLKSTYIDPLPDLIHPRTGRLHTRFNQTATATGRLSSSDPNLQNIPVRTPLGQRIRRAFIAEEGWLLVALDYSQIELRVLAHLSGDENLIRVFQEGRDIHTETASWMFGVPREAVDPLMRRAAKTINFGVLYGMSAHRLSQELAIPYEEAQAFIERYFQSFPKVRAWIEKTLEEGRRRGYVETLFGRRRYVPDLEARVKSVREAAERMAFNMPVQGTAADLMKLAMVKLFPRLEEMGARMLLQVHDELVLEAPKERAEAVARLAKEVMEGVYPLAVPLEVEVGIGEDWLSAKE
Chain of Taq polymerase (P19821 whole entry, the tested form may be a part): as above

## CCCCCCCCCCCC(=O)OCCOCCOCCOCCOCCOCCOCCOCCOCCOCCOCCOCCOCCOCCOCCOCCOCCOCCOCCOCCOCC(OCCOCCOCCOCCOCCOCCOCCOCCOCCOCCOCCOCCOCCOCCOCCOCCOCCOCCOCCOCCO)C1OCC(OCCOCCOCCOCCOCCOCCOCCOCCOCCOCCOCCOCCOCCOCCOCCOCCOCCOCCOCCOCCO)C1OCCOCCOCCOCCOCCOCCOCCOCCOCCOCCOCCOCCOCCOCCOCCOCCOCCOCCOCCOCCO (stereo not shown) [TWEEN-20, Polyoxyethylene (20) sorbitan monolaurate]
Taq polymerase
  effect of addition of surfactant on dye-inhibited quantitative PCR assay: restored the activity of the assay
[1]; 785 WS 0.1 mg/mL, surfactant 0.1 wt %
  PCR Product: 0 ng/µL
[1]; 785 WS 0.1 mg/mL, surfactant 0.5 wt %
  PCR Product: 12.7 ng/µL
[1]; 785 WS 0.1 mg/mL, surfactant 1 wt %
  PCR Product: 19 ng/µL
[1]; 785 WS 0.1 mg/mL, surfactant 2 wt %
  PCR Product: 23.7 ng/µL
[1]; 785 WS 0.1 mg/mL, surfactant 4 wt %
  PCR Product: 24 ng/µL
[1]; SDA 8080 0.2 mg/mL, surfactant 0.1 wt %
  PCR Product: 27 ng/µL
[1]; SDA 8080 0.2 mg/mL, surfactant 0.5 wt %
  PCR Product: 29 ng/µL
[1]; SDA 8080 0.2 mg/mL, surfactant 1 wt %
  PCR Product: 31 ng/µL
[1]; SDA 8080 0.2 mg/mL, surfactant 2 wt %
  PCR Product: 22 ng/µL
[1]; SDA 8080 0.2 mg/mL, surfactant 4 wt %
  PCR Product: 19 ng/µL
[1]; Taq polymerases inhibited by 785 WS and SDA 8080
  effect of addition of surfactant on dye-inhibited Taq polymerase: restored the activity of the enzyme
[1]; surfactant 4 wt %, 785 WS 0 mg/mL (no dye), data from a different experiment under identical PCR conditions
  PCR Product: 28* ng/μL
[1]; surfactant 4 wt %, SDA 8080 0 mg/mL (no dye), data from a different experiment under identical PCR conditions
  PCR Product: 28* ng/μL
[2]
  Laser Stability: + (less than a 20% degradation in dye absorbance over a period of 25 exposures)
T4 DNA ligase
  effect of surfactant on dye-inhibited ligase activity (colonies): restored the activity of ligase
